Calls of active or inactive are those of the source. The calls are words filed in the database; no cut-off is given here.
Legend:
[1] = tested on: Elatine triandra; assay: Herbicidal activity against Elatine triandra at 1000 g /ha treated at 1 to 2-pairs of leaf stage measured after 26 days by outdoor concrete pot test; format: functional, organism-based
[2] = tested on: Elatine triandra; assay: Herbicidal activity against Elatine triandra at 250 g /ha treated at 1 to 2-pairs of leaf stage measured after 26 days by outdoor concrete pot test; format: functional, organism-based
[3] = tested on: Rotala indica; assay: Herbicidal activity against Rotala indica at 1000 g /ha treated at 1 to 2-pairs of leaf stage measured after 26 days by outdoor concrete pot test; format: functional, organism-based
[4] = tested on: Rotala indica; assay: Herbicidal activity against Rotala indica at 250 g /ha treated at 1 to 2-pairs of leaf stage measured after 26 days by outdoor concrete pot test; format: functional, organism-based
[5] = tested on: Echinochloa oryzicola; assay: Pre-emergence herbicide activity against Echinochloa oryzicola under greenhouse condition measured after 14 to 20 days; format: functional
[6] = tested on: Echinochloa oryzicola; assay: Herbicidal activity against Echinochloa oryzicola grown in water-drained pot under greenhouse condition assessed as time duration of residual effect at 500 g /ha; format: functional
[7] = tested on: Echinochloa oryzicola; assay: Herbicidal activity against Echinochloa oryzicola grown in water-drained pot under greenhouse condition assessed as time duration of residual effect at 125 g /ha; format: functional
[8] = tested on: Echinochloa oryzicola; assay: Herbicidal activity against Echinochloa oryzicola under greenhouse condition assessed as time duration of residual effect at 500 g /ha; format: functional
[9] = tested on: Lindernia procumbens; assay: Herbicidal activity against Lindernia procumbens at 250 g /ha treated at 1 to 2-pairs of leaf stage measured after 26 days by outdoor concrete pot test; format: functional, organism-based
[10] = tested on: Pontederia vaginalis; assay: Herbicidal activity against Monochoria vaginalis at 500 g /ha treated at 1.5 to 2-leaf stage measured after 26 days by outdoor concrete pot test; format: functional, organism-based
[11] = tested on: Schoenoplectiella juncoides; assay: Herbicidal activity against Schoenoplectiella juncoides at 500 g /ha treated at 1.5 to 2.1-leaf stage measured after 26 days by outdoor concrete pot test; format: functional, organism-based
[12] = tested on: Echinochloa oryzicola; assay: Herbicidal activity against Echinochloa oryzicola grown in water-drained pot under greenhouse condition assessed as growth inhibition at 125 g /ha measured after 6 days; format: functional, organism-based
[13] = tested on: Echinochloa oryzicola; assay: Herbicidal activity against Echinochloa oryzicola under greenhouse condition assessed as growth inhibition at 1000 g /ha measured after 42 days; format: functional, organism-based
[14] = tested on: Echinochloa oryzicola; assay: Herbicidal activity against Echinochloa oryzicola under greenhouse condition assessed as growth inhibition at 1000 g /ha measured after 33 days; format: functional, organism-based
[15] = tested on: Echinochloa oryzicola; assay: Herbicidal activity against Echinochloa oryzicola under greenhouse condition assessed as growth inhibition at 1000 g /ha measured after 27 days; format: functional, organism-based
[16] = tested on: Echinochloa oryzicola; assay: Herbicidal activity against Echinochloa oryzicola under greenhouse condition assessed as growth inhibition at 1000 g /ha measured after 13 days; format: functional, organism-based
[17] = tested on: Echinochloa oryzicola; assay: Herbicidal activity against Echinochloa oryzicola under greenhouse condition assessed as growth inhibition at 250 g /ha measured after 42 days; format: functional, organism-based
[18] = tested on: Echinochloa oryzicola; assay: Herbicidal activity against Echinochloa oryzicola under greenhouse condition assessed as growth inhibition at 250 g /ha measured after 27 days; format: functional, organism-based
[19] = tested on: Echinochloa oryzicola; assay: Herbicidal activity against Echinochloa oryzicola under greenhouse condition assessed as growth inhibition at 250 g /ha measured after 20 days; format: functional, organism-based
[20] = tested on: Echinochloa oryzicola; assay: Herbicidal activity against Echinochloa oryzicola under greenhouse condition assessed as growth inhibition at 250 g /ha measured after 6 days; format: functional, organism-based
[21] = tested on: Echinochloa oryzicola; assay: Herbicidal activity against Echinochloa oryzicola under greenhouse condition assessed as growth inhibition at 500 g /ha measured after 27 days; format: functional, organism-based
[22] = tested on: Echinochloa oryzicola; assay: Herbicidal activity against Echinochloa oryzicola under greenhouse condition assessed as growth inhibition at 500 g /ha measured after 33 days; format: functional, organism-based
[23] = tested on: Echinochloa oryzicola; assay: Herbicidal activity against Echinochloa oryzicola under greenhouse condition assessed as growth inhibition at 500 g /ha measured after 20 days; format: functional, organism-based
[24] = tested on: Echinochloa oryzicola; assay: Herbicidal activity against Echinochloa oryzicola under greenhouse condition assessed as growth inhibition at 500 g /ha measured after 13 days; format: functional, organism-based
[25] = tested on: Echinochloa oryzicola; assay: Herbicidal activity against Echinochloa oryzicola under greenhouse condition assessed as growth inhibition at 500 g /ha measured after 6 days; format: functional, organism-based
[26] = tested on: Echinochloa oryzicola; assay: Herbicidal activity against Echinochloa oryzicola under greenhouse condition assessed as growth inhibition at 125 g /ha measured after 27 days; format: functional, organism-based
[27] = tested on: Echinochloa oryzicola; assay: Herbicidal activity against Echinochloa oryzicola under greenhouse condition assessed as growth inhibition at 125 g /ha measured after 20 days; format: functional, organism-based
[28] = tested on: Echinochloa oryzicola; assay: Herbicidal activity against Echinochloa oryzicola under greenhouse condition assessed as growth inhibition at 125 g /ha measured after 13 days; format: functional, organism-based
[29] = tested on: Cyperus serotinus; assay: Herbicidal activity against Cyperus serotinus at 500 g /ha treated at 1 to 1.5-leaf stage measured after 26 days by outdoor concrete pot test; format: functional, organism-based
[30] = tested on: Cyperus serotinus; assay: Herbicidal activity against Cyperus serotinus at 1000 g /ha treated at 1 to 1.5-leaf stage measured after 26 days by outdoor concrete pot test; format: functional, organism-based
[31] = tested on: Cyperus serotinus; assay: Herbicidal activity against Cyperus serotinus at 250 g /ha treated at 1 to 1.5-leaf stage measured after 26 days by outdoor concrete pot test; format: functional, organism-based
[32] = tested on: Sagittaria pygmaea; assay: Herbicidal activity against Sagittaria pygmaea at 1000 g /ha treated at 0.5 to 1-leaf stage measured after 26 days by outdoor concrete pot test; format: functional, organism-based
[33] = tested on: Sagittaria pygmaea; assay: Herbicidal activity against Sagittaria pygmaea at 500 g /ha treated at 0.5 to 1-leaf stage measured after 26 days by outdoor concrete pot test; format: functional, organism-based
[34] = tested on: Sagittaria pygmaea; assay: Herbicidal activity against Sagittaria pygmaea at 250 g /ha treated at 0.5 to 1-leaf stage measured after 26 days by outdoor concrete pot test; format: functional, organism-based
[35] = tested on: Echinochloa oryzicola; assay: Herbicidal activity against Echinochloa oryzicola grown in water-drained pot under greenhouse condition assessed as growth inhibition at 500 g /ha measured after 27 days; format: functional, organism-based
[36] = tested on: Echinochloa oryzicola; assay: Herbicidal activity against Echinochloa oryzicola grown in water-drained pot under greenhouse condition assessed as growth inhibition at 500 g /ha measured after 20 days; format: functional, organism-based
[37] = tested on: Echinochloa oryzicola; assay: Herbicidal activity against Echinochloa oryzicola grown in water-drained pot under greenhouse condition assessed as growth inhibition at 500 g /ha measured after 6 days; format: functional, organism-based
[38] = tested on: Echinochloa oryzicola; assay: Herbicidal activity against Echinochloa oryzicola grown in water-drained pot under greenhouse condition assessed as growth inhibition at 125 g /ha measured after 42 days; format: functional, organism-based
[39] = tested on: Echinochloa oryzicola; assay: Herbicidal activity against Echinochloa oryzicola grown in water-drained pot under greenhouse condition assessed as growth inhibition at 125 g /ha measured after 27 days; format: functional, organism-based
[40] = tested on: Echinochloa oryzicola; assay: Herbicidal activity against Echinochloa oryzicola grown in water-drained pot under greenhouse condition assessed as growth inhibition at 125 g /ha measured after 20 days; format: functional, organism-based
[41] = tested on: Echinochloa oryzicola; assay: Herbicidal activity against Echinochloa oryzicola at 1000 g /ha treated at 1.5 to 2-leaf stage measured after 26 days by outdoor concrete pot test; format: functional, organism-based
[42] = tested on: Echinochloa oryzicola; assay: Herbicidal activity against Echinochloa oryzicola at 500 g /ha treated at 1.5 to 2-leaf stage measured after 26 days by outdoor concrete pot test; format: functional, organism-based
[43] = tested on: Echinochloa oryzicola; assay: Herbicidal activity against Echinochloa oryzicola at 250 g /ha treated at 1.5 to 2-leaf stage measured after 26 days by outdoor concrete pot test; format: functional, organism-based
[44] = tested on: Oryza sativa; assay: Phytotoxicity against two-leaf stage Oryza sativa cv. Nihonbare (rice) planted 3 cm depth measured after […]; format: organism-based; settings: in vivo
[45] = tested on: Schoenoplectiella juncoides; assay: Herbicide activity against Schoenoplectiella juncoides under greenhouse condition compound treated at emergence-stage measured after 14 to 20 days; format: functional
[46] = tested on: Echinochloa oryzicola; assay: Herbicide activity against Echinochloa oryzicola under greenhouse condition compound treated at 2 leaf-stage measured after 14 to 20 days; format: functional

CC1=C(c2ccccc2)C(=O)N(C(C)(C)c2nc3ccccc3s2)C1
growth inhibition (GI) [1]: Active | growth inhibition (GI) [2]: Active | growth inhibition (GI) [3]: Active | growth inhibition (GI) [4]: Active | MED [5]: 0.313 g/acre | Time [6]: >42 days | Time [7]: 27 days | Time [8]: >42 days | growth inhibition (GI) [9]: Active | growth inhibition (GI) [10]: Active | growth inhibition (GI) [11]: inactive | growth inhibition (GI) [12]: Active | growth inhibition (GI) [13]: Active | growth inhibition (GI) [14]: Active | growth inhibition (GI) [15]: Active | growth inhibition (GI) [16]: Active | growth inhibition (GI) [17]: inactive | growth inhibition (GI) [18]: inactive | growth inhibition (GI) [19]: Active | growth inhibition (GI) [20]: Active | growth inhibition (GI) [21]: Active | growth inhibition (GI) [22]: Active | growth inhibition (GI) [23]: Active | growth inhibition (GI) [24]: Active | growth inhibition (GI) [25]: Active | growth inhibition (GI) [26]: Active | growth inhibition (GI) [27]: Active | growth inhibition (GI) [28]: Active | growth inhibition (GI) [29]: Active | growth inhibition (GI) [30]: Active | growth inhibition (GI) [31]: Active | growth inhibition (GI) [32]: Active | growth inhibition (GI) [33]: Active | growth inhibition (GI) [34]: inactive | growth inhibition (GI) [35]: Active | growth inhibition (GI) [36]: Active | growth inhibition (GI) [37]: Active | growth inhibition (GI) [38]: inactive | growth inhibition (GI) [39]: inactive | growth inhibition (GI) [40]: inactive | growth inhibition (GI) [41]: Active | growth inhibition (GI) [42]: Active | growth inhibition (GI) [43]: Active | MTD [44]: 10 g/acre | MED [45]: 20 g/acre | MED [46]: 1.25 g/acre

Source: ChEMBL document CHEMBL3046147, “Synthesis and Herbicidal Activity of 1-Arylalkyl-3-pyrrolin-2-one Derivatives” (J Pestic Sci, 2000)
